# Reference: PubChem BioAssay AID463204 (Broad Institute, 2010)
# Activity calls are given as the source filed them.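 Rule for the calls: active = AC50 no more than ten times the top concentration tested, that is within one log above it; inconclusive = flat curve fit with activity between 30% and 70%, or invalid poor fit; inactive = AC50 beyond ten times the top tested dose.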 Residues, ends and D or L forms follow the SMILES beside them.
# Test system: S. cerevisiae Mot1-301 ts growth rescue, BacTiter-Glo ATP luminescence
# Assay: restored Mot1-301 yeast growth at 38.5C – whole organism, S. cerevisiae, Mot1-301 ts mutant, luminescence, dose retest, SUMOylation pathway inhibitor project, confirmation (AID 463204);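 note: growth at restrictive 38.5 degrees C of Mot1-301 OY566 strain; actives raise luminescence by restoring growth of the ts mutant at high temperature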
row,Structure (SMILES),AC50
1,N=c1c2c(n(Cc3ccc(Cl)c(Cl)c3)c3c1CCC3)CCCC2,> 42 µM (inactive)
2,CS(=O)(=O)NCc1ccc(C(=O)NC2CCCCC2)cc1,> 42 µM (inactive)
3,COc1cccc(Cn2cnc3c(NS(=O)(=O)c4cccc(Cl)c4Cl)c(C)c(C)cc32)c1,> 110 µM (inactive)
4,Cc1ccc(S(=O)(=O)N(C)CC(=O)O/N=C(\N)c2ccccn2)cc1,> 42 µM (inactive)
5,COc1ccccc1NC(=O)NCCc1c[nH]c2ccccc12,> 42 µM (inactive)
6,CC1CN(CCCOc2ccc([N+](=O)[O-])cc2)CC(C)O1 (stereo not given),> 42 µM (inactive)
7,OC(COCc1cccs1)CN1CCCCCC1 (stereo not given),> 42 µM (inactive)
8,COc1ccc(C(=O)CSc2nnc(CNC(=O)c3ccccc3)n2C)cc1,> 42 µM (inactive)
9,Cc1onc(-c2ccccc2Cl)c1C(=O)N1CCc2ccccc2C1,34 µM
10,Cc1nn(CC(N)=O)c(=O)c2ccccc12,> 42 µM (inactive)
11,Cc1c(C(=O)Nc2cccc(F)c2)cnn1-c1ccccc1,> 42 µM (inactive)
12,O=C(Nc1ccc2ccccc2c1)N1CCCN(CCOc2ccccc2)CC1,> 42 µM (inactive)
13,Cc1ccc(/C=C/C(=O)O)cc1S(=O)(=O)N(CCO)CCO,> 42 µM (inactive)
14,O=C1CC(c2c[nH]c3ccccc23)C(=O)N1c1ccccc1 (stereo not given),> 42 µM (inactive)
15,Cc1ccc(/C=C/C(=O)OCC(=O)N(CC(C)C)c2c(N)n(Cc3ccccc3)c(=O)[nH]c2=O)o1,> 21 µM (inactive)
16,CCN(CC)c1ccc(/C=N/NC(=O)OC(C)(C)C)cc1,> 42 µM (inactive)
17,Cc1nnc(NC(=O)c2ccc(-c3cccc(C(F)(F)F)c3)o2)s1,> 42 µM (inactive)
18,Cc1ccc(NC(=S)N2CCN(Cc3ccc4c(c3)OCO4)CC2)c(C)c1,> 42 µM (inactive)
19,CC(=O)NC(CC(C)C)C(=O)NC(CO)C(=O)NC(CCC(=O)O)C(=O)NC(C)C(=O)NC(CC(C)C)C(N)=O (stereo not given) (Ac-LSEAL-NH2; configuration not given here),> 42 µM (inactive)
20,CCOC(=O)C1CC(c2ccccc2)=NNC1=O (stereo not given),> 42 µM (inactive)
21,O=S(=O)(NCC1CCCN(Cc2ccccc2O)C1)c1cccc2cccnc12 (stereo not given),> 42 µM (inactive)
22,COc1ccc(CC(=O)NCCN2CCOCC2)cc1,> 42 µM (inactive)
23,O=c1[nH]cnc2cc(Cl)ccc12,> 21 µM (inactive)
24,O=C(Nc1ccccn1)c1ccc(CN(c2ccccc2)S(=O)(=O)c2ccccc2)cc1,> 42 µM (inactive)
25,COc1ccc2[nH]cc(C(=O)C(=O)N3CCCCC3)c2c1,> 42 µM (inactive)

row,Structure (SMILES),AC50
1,CC(=O)Nc1ccc(-c2csc(NC(=O)C3CC(=O)N(c4ccc5c(c4)OCCO5)C3)n2)cc1 (stereo not given),> 42 µM (inactive)
2,COc1ccc(C(=O)CSc2nnc3ccc(-c4ccccn4)nn23)cc1,> 42 µM (inactive)
3,CCOP(=O)(Cc1cc(C(=O)CC)c(C)o1)OCC,> 42 µM (inactive)
4,C/C(CC(=O)NC1CCCCC1)=N\NC(=O)Cc1ccc(-c2ccccc2)cc1,> 42 µM (inactive)
5,CCOc1ccccc1/C=N\Nc1cnn(Cc2ccccc2)c(=O)c1Cl,> 42 µM (inactive)
6,CN1C(=O)c2cccc3c(Cl)ccc(c23)C1=O,> 42 µM (inactive)
7,Cc1ccc(F)cc1NS(=O)(=O)c1ccc(Cl)s1,22.2 µM
8,O=C(CSc1nc(O)cc(=O)n1-c1ccccc1)NC1CCCCC1,> 42 µM (inactive)
9,CC(C)CN(C(=O)COC(=O)c1ccc2c(c1)OCO2)c1c(N)n(Cc2ccccc2)c(=O)[nH]c1=O,> 42 µM (inactive)
10,C[C@H](NC(=O)OC(C)(C)C)C(=O)NCC1CCC(C(=O)N[C@@H](Cc2ccccc2)C(=O)O)CC1 (stereo not given in full),> 42 µM (inactive)
11,CCCCN(C)C(=O)CCC(=O)Nc1ccc2nc(N3CCN(C)CC3)cc(C)c2c1,> 42 µM (inactive)
12,COc1ccc(C(=O)CC(=O)C(=O)Nc2ccc(C)c(C)c2)cc1,> 42 µM (inactive)
13,COc1ccc(Cc2nnc(NCCO)[nH]c2=O)cc1,> 42 µM (inactive)
14,O=C(NC1CCCCCC1)C1CCN(S(=O)(=O)c2cccc3cccnc23)CC1,> 42 µM (inactive)
15,Cc1cc(-c2ccc(Cl)cc2Cl)c(C#N)c(=O)[nH]1,> 42 µM (inactive)
16,Cc1sc2ncnc(N3CCC(C(=O)NNC(=O)COc4ccccc4F)CC3)c2c1C,> 42 µM (inactive)
17,CC(C)CCNC(=O)Nc1ccc2c(c1)N(C)C(=O)CS2,> 42 µM (inactive)
18,CC(C(=O)Nc1ccccc1-c1ccccc1)N1CCN(Cc2ccccc2)CC1 (stereo not given),> 42 µM (inactive)
19,CCc1ccccc1NC(=O)N[C@@H](C)C(=O)OC,> 42 µM (inactive)
20,O=c1[nH]c(CN2CCN(CCO)CC2)nc2ccccc12,> 42 µM (inactive)
21,O=C(c1ccc([N+](=O)[O-])o1)N1CCN(c2nc3c(Cl)cccc3s2)CC1,6.55 µM
22,CCCNC(=O)COC(=O)CCC(=O)c1cccs1,> 42 µM (inactive)
23,COc1ccc(CN2C(=O)C(=O)N(CC(N)=O)C2=O)cc1,> 42 µM (inactive)
24,CCC1(CC)NC(=O)N(CC(=O)N2N=C(c3ccc(Cl)cc3)CC2c2ccco2)C1=O (stereo not given),> 42 µM (inactive)
25,O=C(/C=C/N1CCOCC1)c1coc2ccccc12,> 42 µM (inactive)

row,Structure (SMILES),AC50
1,O=C(/C=C/c1ccc(Cl)cc1)NCc1ccncc1,> 42 µM (inactive)
2,NNc1nc2sc3c(c2c(=O)n1-c1ccccc1)CCCC3,> 42 µM (inactive)
3,O=C1C2CCCCN2C(=O)N1CCCCN1CCN(c2ccccc2Oc2ccccc2)CC1 (stereo not given),> 42 µM (inactive)
4,COc1ccc(NC(=O)CN(C)C(=O)/C=C/c2cn(-c3ccccc3)nc2-c2ccc(F)cc2)cc1,> 42 µM (inactive)
5,Cc1noc(C)c1S(=O)(=O)N1CCCC(C(=O)NCC2CCCO2)C1 (stereo not given),> 42 µM (inactive)
6,COc1cc(COc2ccc3c(C)c(CC(=O)O)c(=O)oc3c2C)cc(OC)c1OC,> 42 µM (inactive)
7,COc1cc(/C=N/NC(=S)NCc2ccco2)cc(OC)c1OC,> 42 µM (inactive)
8,Cc1cc(N2CCN(C)CC2)nc2ccc(NC(=S)N3CCC4(CC3)OCCO4)cc12,> 42 µM (inactive)
9,Nc1nc(CSc2nnnn2-c2ccc(Cl)cc2)nc(N2CCOCC2)n1,> 42 µM (inactive)
10,O=C(c1ccc2c(=O)n(Cc3ccccc3Cl)c(=S)[nH]c2c1)N1CCOCC1,> 42 µM (inactive)
11,O=C(N/N=C/c1cccc([N+](=O)[O-])c1)C1COc2ccccc2O1 (stereo not given),> 42 µM (inactive)
12,CC1=C(C(=O)Nc2ccccc2)C(c2ccccc2[N+](=O)[O-])NC(=O)N1 (stereo not given),> 42 µM (inactive)
13,COc1cccc(C2C(C(C)=O)=C(O)C(=O)N2CCc2c[nH]c3ccccc23)c1 (stereo not given),> 42 µM (inactive)
14,O=C(NCC1CCN(Cc2ccccc2Cl)CC1)Nc1ccccc1F,> 42 µM (inactive)
15,O=C(COC(=O)COc1ccccc1Cl)Nc1ccccc1OC(F)F,> 42 µM (inactive)
16,Cc1ccc(NS(=O)(=O)c2c(C)[nH]c(C)c2C(=O)N2CCCCC2)c(Cl)c1,> 42 µM (inactive)
17,CCCOc1ccccc1C1NC(=O)NC(C)=C1C(=O)OCCOCC (stereo not given),> 42 µM (inactive)
18,O=c1nc(-c2ccccc2)cn[nH]1,> 42 µM (inactive)
19,CC1=CS(=O)(=O)CC1Sc1ncn[nH]1 (stereo not given),> 42 µM (inactive)
20,CN1CCCC(n2nc(Cc3ccc(Cl)cc3)c3ccccc3c2=O)CC1 (stereo not given),> 42 µM (inactive)
21,Cc1ccc(Oc2ccc(OCC(=O)Nc3ccncc3)cc2)cc1,23.5 µM
22,O=C(NNC(=O)C12CC3CC(CC(C3)C1)C2)c1ccccn1,21 µM
23,COc1cc(C(=O)NCCC2=CCCCC2)ccc1OC1CCN(C(C)=O)CC1,> 42 µM (inactive)
24,CN1C(=O)NC(=O)[C@]2(Cc3ccccc3N3CCN(c4ccccc4)CC32)C1=O (stereo not given in full),> 42 µM (inactive)
25,O=C(NCc1cccc(F)c1F)C1CCC(=O)N(C2CC2)C1 (stereo not given),> 42 µM (inactive)

row,Structure (SMILES),AC50
1,N#CCSc1nc2c(c(C3CC=CCC3)c1C#N)CCC2 (stereo not given),> 42 µM (inactive)
2,Cc1nnsc1C(=O)N1CCC(CO)(Cc2ccccc2Cl)CC1,> 42 µM (inactive)
3,N#Cc1cc2c(nc1SCc1cccnc1)CCC2,> 42 µM (inactive)
4,COc1ccc(CN2C(=O)c3c(c(C)n(C)c3C)C2C(=O)NC2CCC(C)CC2)cc1 (stereo not given),> 21 µM (inactive)
5,Cc1cc([N+](=O)[O-])ccc1NC(=O)CSc1nccc(=O)[nH]1,> 42 µM (inactive)
6,CCN(CC(=O)N1CCCCCC1)S(=O)(=O)c1ccc(Cl)cc1,> 42 µM (inactive)
7,CC12CC3(C)CC(C)(C1)CC(C(=O)NC(=S)N1CCCC1)(C2)C3,> 42 µM (inactive)
8,Cc1ccc(C)c(OCCCC(=O)N2CCOCC2)c1,> 42 µM (inactive)
9,CSCCC(NC(=O)c1ccco1)C(=O)N1CCN(Cc2ccccc2)CC1 (stereo not given),> 42 µM (inactive)
10,CC1(C)C=C(c2ccc(O)cc2)CC(C)(C)N1,> 42 µM (inactive)
11,O=C(Cc1ccccc1)N1CCCC1c1ccccc1 (stereo not given),> 42 µM (inactive)
12,COc1ccccc1NC(=O)CN(c1ccc(C)cc1)S(=O)(=O)c1c(C)n[nH]c1C,> 42 µM (inactive)
13,O=C(Cc1ccc(Cl)cc1)NC(=S)Nc1ccccc1N1CCOCC1,> 42 µM (inactive)
14,COc1ccc(-c2cc(=O)c3cc(O)ccc3o2)cc1,> 42 µM (inactive)
15,Cc1ccc(NC(=O)CCS(=O)(=O)c2ccc3nc(C)sc3c2)cc1,> 42 µM (inactive)
16,O=C(NNC(=O)c1csc(N2CCOCC2)n1)c1ccc(Cl)nc1,> 42 µM (inactive)
17,COc1ccc(/C=C(\C#N)C(=O)NCCCn2ccnc2)cc1,> 42 µM (inactive)
18,Cc1ccc(Nc2cc(C)nc3c(C)ccc([N+](=O)[O-])c23)cc1,13.8 µM
19,CCOC(=O)c1c(C)[nH]c(C(=O)COC(=O)c2ccncc2)c1C,> 42 µM (inactive)
20,O=C(CSc1cccc2cccnc12)Nc1cc(C(=O)O)cc(C(=O)O)c1,> 42 µM (inactive)
21,Cc1cc(C)cc(N2C(=O)CC(Sc3ncn[nH]3)C2=O)c1 (stereo not given),1.92 µM
22,O=C1CCCC2=C1C(c1ccncc1)c1c(nc(SCc3ccccc3Cl)[nH]c1=O)N2 (stereo not given),> 42 µM (inactive)
23,CCOc1cc(C(N)=O)cc(Cl)c1OCc1ccccc1,> 42 µM (inactive)
24,Cc1cnc(C(=O)OCC(=O)Nc2ccc(C)c(S(=O)(=O)N(C)C)c2)cn1,> 42 µM (inactive)
25,CCN(CC(=O)NCc1ccc(Cl)cc1)C(=O)/C=C/c1ccc(C#N)cc1,> 42 µM (inactive)
